{"source": "patent US20030083250A1", "about": "“Anti-tumor chemotherapy by administration of cyclophosphamide and erythropoeitin” (priority 2001, published 2003)", "key": {"anemic cancer patients": {"system": "anemic cancer patients", "conditions": "150 IU/kg t.i.w. vs placebo; after the first month of therapy; platinum or non-platinum chemotherapy; cited from earlier work"}, "experimental tumors": {"system": "experimental tumors", "conditions": "after correcting anemia; 76% in moderate anemia, 21% before; cited from earlier work"}, "DS-sarcoma": {"system": "DS-sarcoma", "experiment": "Growth of subcutaneous DS-sarcomas in rats (tumor volume, volume doubling time, growth delay after cyclophosphamide)", "format": "in vivo, rat", "conditions": "for volume doubling time during the regrowth period: after cyclophosphamide; for growth delay following chemotherapy: at the 1.3 ml tumor volume level, cyclophosphamide 60 mg/kg i.p. Day 5; for volume doubling time / impact on tumor growth rate per se: tumors not treated with cyclophosphamide; for impact on tumor growth rate per se: carboplatin four days before implantation, rHuEPO 1000 IU/kg three times per week", "method": "(§1) Male Sprague-Dawley rats (Charles River Wiga, Sulzfeld, Germany; body weight 100 to 160 g) housed in our animal care facility were used in the study. Animals were allowed access to food and acidified water ad libitum before and throughout the investigation. All experiments had previously been approved by the regional animal ethics committee and were conducted in accordance with the German Law for Animal Protection and the UKCCCR Guidelines [United Kingdom Coordinating Committee on Cancer Research (UKCCCR) guidelines for the welfare of animals in experimental neoplasia (2 nd edit). Br. J. Cancer, (1998) 77:1-10].\nSolid DS-sarcomas were induced by injecting DS-sarcoma cells (0.4 ml approximately 10^4 cells/μl) subcutaneously into the hind food dorsum. […] Tumor volumes were determined by measuring the three orthogonal diameters of the tumor and using an ellipsoid approximation with the formula: V=d1×d2×d3×π/6. From the volume growth curves the volume doubling time was calculated during exponential tumor growth.\n(§2) Prolonged anemia was induced by a single injection of carboplatin (Sigma-Aldrich, Steinheim, Germany) at a dose of 50 mg/kg body weight (dissolved in isotonic saline at a concentration of 20 mg/ml) into the tail vein four days before tumor implantation.\n(§3) Recombinant human erythropoietin (epoetin alpha, ERYPO 4000®; Janssen-Cilag, Neuss, Germany) in isotonic NaCl solution was administered (1000 IU/kg) three times per week over sixteen days by s.c. injection starting eleven days before tumor implantation. Control animals received equivalent volumes of the solvent (0.5 ml/ kg).\nAnimals treated with equivalent volumes of the solvent (isotonic saline 6 ml/kg) served as controls.\nGroup 1 (non-anemic): Animals received cyclophosphamide on Day 5 after tumor implantation.\nGroup 2 (anemic): Animals treated for four days before tumor implantation with carboplatin for anemia induction. Cyclophosphamide was administered on Day 5 after implantation.\nGroup 3 (anemic, rHuEPO-treated): Animals treated with rHuEPO three times per week from eleven days before tumor implantation and up until the day of cyclophosphamide application. Carboplatin (for anemia induction) was administered on Day −4 and cyclophosphamide was applied on Day 5.\nControls for all three experimental groups received equivalent volumes of the solvent instead of cyclophosphamide on Day 5 after tumor implantation.\n(§4) Results are expressed as means±standard error of the mean (SEM). Differences between the groups were assessed by the two-tailed Wilcoxon test for unpaired samples. The significance level was set at α=5% for all comparisons. For characterizing the effect of chemotherapy on tumor growth, the growth delay induced by cyclophosphamide was calculated."}, "[1]": {"system": "human ovarian cancer xenographs", "conditions": "EPO alone (control group); cited from earlier work"}, "experimental tumours": {"system": "experimental tumours", "conditions": "in vivo; cited from earlier work"}, "Male Sprague-Dawley rats": {"system": "Male Sprague-Dawley rats", "experiment": "Blood cell parameters (automated hematology analyzer) in rats with carboplatin-induced anemia, with or without rHuEPO", "format": "in vivo, rat", "conditions": "for CHb (hemoglobin concentration): day of cyclophosphamide treatment (Day 5 after tumor implantation), carboplatin 50 mg/kg i.v. on Day -4, rHuEPO 1000 IU/kg s.c. three times per week", "method": "as §1, §2, §3\nBesides tumor growth, blood cell parameters were assessed using a multi-parameter, automated hematology analyzer (Ac-T8; Beckman-Coulter, Krefeld, Germany) whereby erythrocyte, white blood cell and platelet counts together with the mean cell volume (MCV) were measured by an impedance technique and the hemoglobin concentration by a photometric method. In addition, the analyzer uses the measured values to calculate several other parameters (e.g., hematocrit, mean corpuscular hemoglobin content [MCH] and mean corpuscular hemoglobin concentration [MCHC]). All measurements were performed using a sample of venous blood (20 μl) taken from a tail vein.\nas §4"}, "[2]": {"system": "FSaIIC Murine Fibrosarcoma", "conditions": "experimental sarcomas of mice; cited from earlier work"}, "[3]": {"conditions": "day of cyclophosphamide treatment, mean ± SEM"}}, "note": "“Also recorded” adds a separate entry of the source.", "data": [{"molecule": "rHuEPO: Recombinant human erythropoietin (epoetin alpha, ERYPO 4000; Janssen-Cilag)", "values": [{"measurement": "effect on hematocrit and transfusion requirements", "setting": "anemic cancer patients", "value": "increase hematocrit and decrease transfusion requirements"}, {"measurement": "fraction of hypoxic pO2 values ≦2.5 mmHg", "setting": "experimental tumors", "value": 55, "unit": "%"}, {"measurement": "effect of reversing anemia on cytotoxicity of cyclophosphamide chemotherapy", "setting": "DS-sarcoma; DS sarcomas, anemia cHb=98 g/l", "value": "significantly increases the cytotoxicity of this chemotherapy"}, {"measurement": "volume doubling time during the regrowth period", "setting": "DS-sarcoma; rHuEPO-treated animals", "value": 4.3, "unit": "days"}, {"measurement": "growth delay following chemotherapy", "setting": "DS-sarcoma; rHuEPO-treated group (carboplatin + rHuEPO)", "value": "approximately 13.3 days"}, {"measurement": "volume doubling time", "setting": "DS-sarcoma", "value": "approximately 1.8 days"}, {"measurement": "impact on tumor growth rate per se", "setting": "DS-sarcoma", "value": "no impact per se on the growth rate of the tumors; also recorded: no impact on the tumor growth per se"}, {"measurement": "changes in tumor growth", "setting": "[1]", "value": "no changes in tumor growth"}, {"measurement": "effect of correction of anemia on radiosensitivity", "setting": "experimental tumours", "value": "able to improve the radiosensitivity"}, {"measurement": "cHb", "setting": "Male Sprague-Dawley rats; continuous rHuEPO treatment in otherwise untreated rats, within one week", "value": 153, "unit": "g/L"}, {"measurement": "CHb (hemoglobin concentration)", "setting": "Male Sprague-Dawley rats; mean ± SEM", "value": 137, "unit": "g/L"}, {"measurement": "effect on carboplatin-induced anemia at the time of chemotherapy", "setting": "Male Sprague-Dawley rats; rHuEPO for approximately one week prior to carboplatin application", "value": "prevention (or reversal) of the carboplatin-induced anemia"}]}, {"molecule": "N[C@@H](Cc1ccc(N(CCCl)CCCl)cc1)C(=O)O", "note": "[melphalan]", "values": [{"measurement": "cell kill in oxygenated versus hypoxic tumor areas", "setting": "[2]", "value": "more pronounced cell kill"}]}, {"molecule": "N.N.O=C([O-])C1(C(=O)[O-])CCC1.[Pt+2]", "note": "[carboplatin]", "values": [{"measurement": "volume doubling time", "setting": "DS-sarcoma", "value": "approximately 1.8 days"}, {"measurement": "impact on tumor growth rate per se", "setting": "DS-sarcoma", "value": "does not affect the growth of DS sarcomas; also recorded: no impact per se on the growth rate of the tumors; also recorded: no effect on the growth rate of DS-sarcomas"}, {"measurement": "cell kill in oxygenated versus hypoxic tumor areas", "setting": "[2]", "value": "more pronounced cell kill"}, {"measurement": "CHb (hemoglobin concentration)", "setting": "Male Sprague-Dawley rats; mean ± SEM", "value": 98, "unit": "g/L"}, {"measurement": "CHb (hemoglobin concentration)", "setting": "Male Sprague-Dawley rats; mean ± SEM, listed as CARBOPLATIN", "value": "98 ± 3", "unit": "g/L"}, {"measurement": "Hematocrit", "setting": "Male Sprague-Dawley rats; [3]", "value": "28 ± 1", "unit": "%"}, {"measurement": "Mean Corpuscular Hb Concentration (MCHC)", "setting": "Male Sprague-Dawley rats; [3]", "value": "348 ± 5", "unit": "g/L"}, {"measurement": "Mean Corpuscular Hemoglobin (MCH)", "setting": "Male Sprague-Dawley rats; [3]", "value": "22 ± 1", "unit": "pg"}, {"measurement": "Mean Corpuscular Volume (MCV)", "setting": "Male Sprague-Dawley rats; [3]", "value": "63 ± 1", "unit": "fL"}, {"measurement": "RBC count", "setting": "Male Sprague-Dawley rats; [3]", "value": "4.5 ± 0.2 10^6/μl"}, {"measurement": "mean cHb", "setting": "Male Sprague-Dawley rats; nine days after a single dose of carboplatin 50 mg/kg i.v., start approximately 130 g/l", "value": "about 100 g/l"}]}, {"molecule": "O=P1(N(CCCl)CCCl)NCCCO1", "note": "(stereo not drawn) [cyclophosphamide]", "values": [{"measurement": "volume doubling time during the regrowth period", "setting": "DS-sarcoma; anemic group", "value": 4.0, "unit": "days"}, {"measurement": "volume doubling time during the regrowth period", "setting": "DS-sarcoma; non-anemic group", "value": 4.6, "unit": "days"}, {"measurement": "growth delay following chemotherapy", "setting": "DS-sarcoma; anemic (carboplatin) group", "value": 8.6, "unit": "days"}, {"measurement": "growth delay following chemotherapy", "setting": "DS-sarcoma; non-anemic group", "value": "approximately 13.3 days"}, {"measurement": "growth delay", "setting": "DS-sarcoma; single dose 60 mg/kg i.p., stated in the methods, not curative", "value": "approximately eight to ten"}, {"measurement": "cell kill in oxygenated versus hypoxic tumor areas", "setting": "[2]", "value": "more pronounced cell kill"}]}]}
